The values that follow come from US8084484B2, “Vanilloid receptor ligands, pharmaceutical compositions containing them, process for making them, and use thereof for treating pain and other conditions” (Gruenenthal GmbH, priority 2007, dated 2011).

One test has as its target VR1/TRPV1 receptor (Homo sapiens, UniProt Q8NER1). Nature of the test: Inhibition of human VR1/TRPV1 following pH-stimulus. To be noted: for IC50 (Human) following pH-stimulus: ne = no effect, no response observed; for inhibition at 1 µM: compound 1 μM, read-out: IC50 (Human) following pH-stimulus: inhibition (in percent) @ 1 μM; for inhibition at 5 µM: read-out: IC50 (Human) following pH-stimulus: inhibition (in percent) @ 5 μM; for inhibition at 10 µM: compound 10 μM, read-out: IC50 (Human) following pH-stimulus: inhibition (in percent) @ 10 μM. The test is classed as cell-based.

Test [1] deals with T1, vanilloid receptor (VR1), human VR1 gene (Homo sapiens, UniProt Q8NER1).
T1 construct: expressed in transfected cells; host or cells: CHO K1 cells (ECACC), stably transfected
T1 sequence (Q8NER1 whole entry): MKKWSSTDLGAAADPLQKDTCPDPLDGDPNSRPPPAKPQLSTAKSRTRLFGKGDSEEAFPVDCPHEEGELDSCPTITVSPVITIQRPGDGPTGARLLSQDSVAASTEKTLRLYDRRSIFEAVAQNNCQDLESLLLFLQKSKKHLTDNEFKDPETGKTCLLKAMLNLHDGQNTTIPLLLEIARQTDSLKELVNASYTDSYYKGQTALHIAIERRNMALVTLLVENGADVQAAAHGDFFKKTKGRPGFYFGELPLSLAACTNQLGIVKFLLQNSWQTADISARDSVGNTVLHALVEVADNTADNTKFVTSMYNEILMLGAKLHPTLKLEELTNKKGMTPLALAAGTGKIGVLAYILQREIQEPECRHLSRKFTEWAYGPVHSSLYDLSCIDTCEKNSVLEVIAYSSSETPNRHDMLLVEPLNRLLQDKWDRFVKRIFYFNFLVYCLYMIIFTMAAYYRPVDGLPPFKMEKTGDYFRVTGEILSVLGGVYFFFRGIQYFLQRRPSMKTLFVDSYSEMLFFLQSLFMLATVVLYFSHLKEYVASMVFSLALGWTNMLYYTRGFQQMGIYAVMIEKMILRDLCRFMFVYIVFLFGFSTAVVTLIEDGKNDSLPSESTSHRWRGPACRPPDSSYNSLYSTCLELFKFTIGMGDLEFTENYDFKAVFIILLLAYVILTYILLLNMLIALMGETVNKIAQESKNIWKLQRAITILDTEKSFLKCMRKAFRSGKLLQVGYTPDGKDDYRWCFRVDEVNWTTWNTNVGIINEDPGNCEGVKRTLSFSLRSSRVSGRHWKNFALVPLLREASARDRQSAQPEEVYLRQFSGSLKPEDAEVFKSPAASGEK
Nature of the test: FLIPR Ca2+ influx assay on CHO K1 cells transfected with the VR1 gene, capsaicin stimulus (Pharmacological method II). To be noted: for Ki / Ki (human) Capsaicin: human, Ki by Cheng-Prusoff, ne = no effect, no response observed; for inhibition at 5 µM: CHO-K1, compound 5 μM, read-out: Capsaicin: inhibition (in percent) @ 5 μM; for inhibition at 5 µM / inhibition at 0.1 µM: species column unclear (taken as human); for inhibition at 0.1 µM: CHO-K1, compound 0.1 μM, read-out: Capsaicin: inhibition (in percent) @ 0.1 μM. The test is classed as cell-based. Here is the method: In addition, compounds according to the invention of the general formulae I, Ia, Ib, Ic, and Id, may be preferred which in the FLIPR assay with CHO K1 cells, which have been transfected with the human VR1 gene, in a concentration of less than 2000 nM, preferably of less than 1000 nM, particularly preferably of less than 300 nM, very particularly preferably of less than 100 nM, still more preferably of less than 75 nM, further preferably of less than 50 nM and most preferably of less than 10 nM, bring about a 50 percent displacement of capsaicin, which is present in a concentration of 100 nM. In this FLIPR assay, the influx of Ca^2+ is quantified with the assistance of a Ca^2+-sensitive dye (type Fluo-4, Molecular Probes Europe BV, Leiden, Netherlands) in a Fluorescent Imaging Plate Reader (FLIPR, Molecular Devices, Sunnyvale, USA) as described below.
II. Functional Investigations on Vanilloid Receptor (VR1)
The agonistic or antagonistic action of the substances to be investigated on the vanilloid receptor (VR1) may also be determined with the following assay. According to this assay, the influx of Ca^2+ through the channel is quantified with the assistance of a Ca^2+-sensitive dye (type Fluo-4, Molecular Probes Europe BV, Leiden, Netherlands) in a Fluorescent Imaging Plate Reader (FLIPR, Molecular Devices, Sunnyvale, USA).
Chinese hamster ovary cells (CHO K1 cells, European Collection of Cell Cultures (ECACC), Great Britain) are stably transfected with the VR1 gene. For functional investigations, these cells are plated out onto poly-D-lysine-coated, black 96-hole plates with a clear base (BD Biosciences, Heidelberg, Germany) at a density of 25,000 cells/hole. The cells are incubated overnight at 37° C. and 5% CO2 in a culture medium (Ham's Nutrient Mixture F12, 10 vol. % FCS (foetal calf serum), 18 μg/mL L-proline). On the following day, the cells are incubated with Fluo-4 (Fluo-4 2 μM, Pluronic F127 0.01 vol. %, Molecular Probes in HBSS (Hank's buffered saline solution), Gibco Invitrogen GmbH, Karlsruhe, Germany) for 30 minutes at 37° C. The plates are then washed 3 times with HBSS buffer and, after a further 15 minutes' incubation at room temperature, used for Ca^2+ measurement in the FLIPR. Ca^2+-dependent fluorescence is here measured before and after the addition of the substances to be investigated (wavelength λex=488 nm, λem=540 nm).
Quantification proceeds by measuring the highest fluorescence intensity (FC, fluorescence counts) over time.
The FLIPR protocol consists of 2 additions of substance. The substances to be tested (10 μM) are firstly pipetted onto the cells and Ca^2+ influx is compared with the control (capsaicin 10 μM) (% activation relative to the Ca^2+ signal after addition of 10 μM of capsaicin). After 5 minutes' incubation, 100 nM of capsaicin are added and the influx of Ca^2+ is likewise determined.
The percentage inhibition in comparison with the maximum achievable inhibition with 10 μM capsaicin is calculated.
On the basis of the percentage displacement by different concentrations of the compounds to be tested of the general formula I, IC50 inhibition concentrations which bring about 50% displacement of capsaicin were calculated. Ki values for the test substances were obtained by conversion using the Cheng-Prusoff equation (Cheng, Prusoff; Biochem. Pharmacol. 22, 3099-3108, 1973).

Molecules are shown by their SMILES.

VR1/TRPV1 receptor, sequence (Q8NER1 whole entry): as above

By Ki is commonly meant the equilibrium dissociation constant of an inhibitor or competing ligand from its target. Read a high Ki as lower affinity. Turning to `CC(C(=O)NCc1ccc(C(C)(C)C)cc1)c1ccc2ocnc2c1` (stereo not shown) [Example 1, 2-benzooxazol-5-yl-N-(4-tert.-butyl-benzyl)-propionamide], on VR1/TRPV1 receptor, the “IC50 (Human) following pH-stimulus” value is given as “Ne”. Besides, the affinity in test [1], expressed as Ki, was 0.579 µM.
On the same counts, the results for `COc1cc(C(C)C(=O)NCc2ccc(C(C)(C)C)cc2)cc2ncoc12` (stereo not shown) [Example 7, N-(4-tert.-butyl-benzyl)-2-(7-methoxy-benzooxazolyl-5-yl)-propionamide] are “Ne” and 2.17 µM.
Take `CC(C(=O)NCc1ccc(C(C)(C)C)cc1)c1ccc2c(c1)OCCO2` (stereo not shown) [Example 9, N-(4-tert.-butyl-benzyl)-2-(2,3-dihydro-benzo[1,4]dioxin-6-yl)-propionamide]: the “IC50 (Human) following pH-stimulus” value against VR1/TRPV1 receptor is reported as “Ne”. The molecule also gave a Ki in test [1] of 1.07 µM.
As to `CC(C(=O)NCc1ccc(C(C)(C)C)cc1)c1ccc2nccnc2c1` (stereo not shown) [Example 11, N-(4-tert.-butyl-benzyl)-2-quinoxalin-6-yl-propionamide], the “Ki (human) Capsaicin” value in test [1] is given as “ne”.
For `CC(C(=O)NCc1ccc(C(C)(C)C)cc1)c1ccc2[nH]cnc2c1` (stereo not shown) [Example 14, 2-(1H-benzoimidazol-5-yl)-N-(4-tert.-butyl-benzyl)-propionamide], the “Ki (human) Capsaicin” value in test [1] is on record as “ne”.
Usually inhibition stands for the drop in the measured response relative to a control, in per cent. For the molecule `CC(C(=O)NCc1ccc(C(C)(C)C)cc1)c1ccc2c(c1)OCCN2` (stereo not shown) [Example 20, N-(4-tert.-butylbenzyl)-2-(3,4-dihydro-2H-benzo[b][1,4]oxazin-7-yl)propionamide], on VR1/TRPV1 receptor, the “IC50 (Human) following pH-stimulus” value is recorded as “Ne”. For the same molecule, the inhibition at 5 µM in test [1] amounted to 9%.
Take `CSc1nc2ccc(C(C)C(=O)NCc3ccc(C(C)(C)C)nc3N3CCC(C)CC3)cc2s1` (stereo not shown) [Example 34, N-(6′-tert.-butyl-4-methyl-3,4,5,6-tetrahydro-2H-[1,2′]bipyridinyl-3′-ylmethyl)-2-(2-methylsulfanyl-benzothiazol-6-yl)-propionamide]: the “IC50 (Human) following pH-stimulus” value against VR1/TRPV1 receptor is on record as “Ne”. Also, in test [1], the inhibition at 5 µM came to 38%.
Regarding `CC1CCN(c2nc(C(F)(F)F)ccc2CNC(=O)C(C)c2ccc3nc(N)sc3c2)CC1` (stereo not shown) [Example 38, 2-(2-aminobenzo[d]thiazol-6-yl)-N-((2-(4-methylpiperidin-1-yl)-6-(trifluoromethyl)pyridin-3-yl)methyl)propanamide], the “IC50 (Human) following pH-stimulus” value at VR1/TRPV1 receptor was “Ne”. Further, the Ki in test [1] is 0.0284 µM.
Turning to `CC1CCN(c2nc(C(F)(F)F)ccc2CNC(=O)C(C)c2ccc3nc(NS(C)(=O)=O)sc3c2)CC1` (stereo not shown) [Example 39, N-((2-(4-methylpiperidin-1-yl)-6-(trifluoromethyl)pyridin-3-yl)methyl)-2-(2-(methylsulfonamido)benzo[d]thiazol-6-yl)propanamide], the “IC50 (Human) following pH-stimulus” value at VR1/TRPV1 receptor is given as “Ne”. Besides, in test [1], the inhibition at 0.1 µM stood at 0%.
Take `CC1CCN(c2nc(C(F)(F)F)ccc2CNC(=O)C(C)c2ccc3nc(NC(=O)OC(C)(C)C)sc3c2)CC1` (stereo not shown) [Example 40, tert.-butyl 6-(1-((2-(4-methylpiperidin-1-yl)-6-(trifluoromethyl)pyridin-3-yl)methylamino)-1-oxopropan-2-yl)benzo[d]thiazol-2-ylcarbamate]: on VR1/TRPV1 receptor, the inhibition at 1 µM was found to be 0% and the inhibition at 10 µM turned out to be 37%. Further, the inhibition at 5 µM at VR1/TRPV1 receptor (compound 5 μM) was 21%. Besides, in test [1], the inhibition at 0.1 µM amounted to 0% and the inhibition at 5 µM was 34%.
As to `CC(=O)Nc1nc2ccc(C(C)C(=O)NCc3ccc(C(F)(F)F)nc3N3CCC(C)CC3)cc2s1` (stereo not shown) [Example 41, 2-(2-acetamidobenzo[d]thiazol-6-yl)-N-((2-(4-methylpiperidin-1-yl)-6-(trifluoromethyl)pyridin-3-yl)methyl)propanamide], the “IC50 (Human) following pH-stimulus” value against VR1/TRPV1 receptor is “Ne”. For the same molecule, in test [1], the inhibition at 0.1 µM worked out at 5%.
Consider `CC(C(=O)NCc1ccc(C(C)(C)C)cc1)c1ccc2nc(NC(=O)OC(C)(C)C)sc2c1` (stereo not shown) [Example 50, tert.-butyl 6-(1-(4-tert.-butylbenzylamino)-1-oxopropan-2-yl)benzo[d]thiazol-2-ylcarbamate], for which, on VR1/TRPV1 receptor, the inhibition at 1 µM is 10% and the inhibition at 10 µM turned out to be 53%. The inhibition at 5 µM at VR1/TRPV1 receptor (compound 5 μM) was 25%. In addition, in test [1], the inhibition at 0.1 µM is 0% and the inhibition at 5 µM was determined as 10%.
`CC(C(=O)NCc1ccc(C(C)(C)C)cc1)c1ccc2nc(N)sc2c1` (stereo not shown) [Example 51, 2-(2-aminobenzo[d]thiazol-6-yl)-N-(4-tert.-butylbenzyl)propanamide]: the inhibition at 0.1 µM worked out at 10% on VR1/TRPV1 receptor (compound 0.1 μM, read-out: IC50 (Human) following pH-stimulus: inhibition (in percent) @ 0.1 μM) and 3% in test [1]. Further, the “IC50 (Human) following pH-stimulus: inhibition (in percent) @ 5 μM” value at VR1/TRPV1 receptor (compound 5 μM, 5 µM) came out at 27% @ 5. Moreover, the inhibition at 5 µM at VR1/TRPV1 receptor (compound 5 μM) turned out to be 39%.
Turning to `CC1CCN(c2nc(C(F)(F)F)ccc2CNC(=O)C(C)c2ccc3nc(N)sc3c2)CC1` (stereo not shown) [Example 52, 2-(2-aminobenzo[d]thiazol-6-yl)-N-((2-(4-methylpiperidin-1-yl)-6-(trifluoromethyl)pyridin-3-yl)methyl)propanamide], the “IC50 (Human) following pH-stimulus” value on VR1/TRPV1 receptor is “Ne”. Besides, the inhibition at 0.1 µM in test [1] was 5%.
With `CC1CCN(c2nc(C(C)(C)C)ccc2CNC(=O)C(C)c2ccc3nc(NC(=O)OC(C)(C)C)sc3c2)CC1` (stereo not shown) [Example 55, tert-butyl 6-(1-((6-tert-butyl-2-(4-methylpiperidin-1-yl)pyridin-3-yl)methylamino)-1-oxopropan-2-yl)benzo[d]thiazol-2-ylcarbamate], the inhibition at 1 µM on VR1/TRPV1 receptor was determined as 5%. Besides, the inhibition at 5 µM amounted to 27% on VR1/TRPV1 receptor (compound 5 μM) and 12% in test [1].
As for `CC1CCN(c2nc(C(C)(C)C)ccc2CNC(=O)C(C)c2ccc3nc(N)sc3c2)CC1` (stereo not shown) [Example 56, 2-(2-aminobenzo[d]thiazol-6-yl)-N-((6-tert-butyl-2-(4-methylpiperidin-1-yl)pyridin-3-yl)methyl)propanamide], the inhibition at 5 µM at VR1/TRPV1 receptor (compound 5 μM) is 2%. The inhibition at 10 µM at VR1/TRPV1 receptor turned out to be 12%. Moreover, the Ki in test [1] was found to be 0.0187 µM.
On the same counts, the results for `CC(C(=O)NCc1ccc(C(C)(C)C)cc1)c1ccc2nc(NS(C)(=O)=O)sc2c1` (stereo not shown) [Example 57, N-(4-tert-butylbenzyl)-2-(2-(methylsulfonamid)benzo[d]thiazol-6-yl)propanamide] are 3%, 32% and 0.0328 µM.
